Experiments:
PfKRS1 = PfKRS1 (Plasmodium falciparum, UniProt Q8IDJ8); assay: PfKRS1 mode of inhibition, pyrophosphate generation (EnzChek); assay type: biochemical; design: recombinant PfKRS1 (77–583 and 80–583); His (N); MBP (with TEV site) (N); made in house; host or cells: E. coli BL21 (DE3); codon-optimised gene from Genscript
Method: SUPPLEMENTARY INFORMATION glycerol pH 7.5/protease inhibitor tablets/DNAase) was added and the pellets for defrosted at room temperature for approximately 10 min. The slurry was then passed through a Cell Disrupter (Constant Systems) set at 30 KPSI to l yse the cel ls. The s ample w as t hen cent ri fug ed at 40, 000g for 2 0 mi n. The supernatant was then filtered using syringe filters to 0.45 µm. The s upernat ant w as l oaded ont o a 5 ml Hi Trap Ni HP col umn that had been eq ui l i brated wi th Buffer A (25 m M HEP ES /5 00 m M NaC l /2 0 mM Imi dazol e/2 mM DTT/10% Gl ycerol pH 7.5) at 5 ml /mi n usi ng an AKTA Pure system. Once l oaded the column was washed with 10 column volumes buffer A. A 5% step of Buf fer B (25 mM HEPES /50 0 mM NaC l /500 mM I mi daz ol e/2mM D TT/ 10% Glycerol pH 7.5) was then used to wash off His rich contami nati ng protei ns . […]
2.5 PfKR S1, CpKRS and HsKR S Pyr oph osphate Ge ne r ation EnzChe kTM Ki ne tic M e asur e me nts Steady-state kinetic measurements were conduc ted at room temperature using a PheraStar plate re a de r (BM G ). End-poi nt s fo r t he ami noacy l at i on react i on of PfKRS1, which produces inorganic py roph os phat e t hat i s conv ert ed t o t w o mol ecules of i norg ani c phos phat e us i ng a py rophos phat as e enzyme, were measured usi ng the EnzChek™ Pho sphate Assay Ki t, whi ch gives an absorbance read - out at 36 0 nm. […] The reaction was carried out for 6 h (PfKRS1 an d CpKRS) or 1 2 h (HsKRS) at ro om temperature and then the absorbance o f each wel l was read at 360 nm. The s ubs t rat es Km values were determined by varying the concentration of one of the substrates at saturati ng concentrati on of the othe r. […]
where V is the maximal velocity (here expressed as µM/min of phosphate production), S is the substrate concentration a nd K is the Michaelis constant for the substrate (Km). […]

C. hominis (TU502) = assay: Activity against Cryptosporidium hominis; assay type: cell-based
Method: Thi s i s bas ed on methods previ ousl y reported (14). Mature P. falciparum stage V gametocytes (NF54)
were incubated with test compound for 24 h at 3 7°C i n 384-well plates containing complete culture
medi um (RPMI 1640, 25 mM HEPES, 2 g/l D-glucose, 2 g/l sodium bicarbonate, 50 mg/l
Gametogenesis was triggered by dis pens i ng 10 µl ookinete medium (RPMI 1640, 25 mM HEPES, 2 g/l
D-glucose, 2 g/l sodium bicarbonate, 50 mg/l hy pox ant hi ne, 100 µM xanthurenic acid) also
contai ni ng 2. 7 µg/ml anti-Pfs25-Cy3 into each well and cooling the plate on a metal block at 4 °C fo r
4 mi n. Fi fteen s l ater male gametogenesis was recorded by b ri ghtfi el d i magi ng usi ng ti m e s 6 object i v e
and then the pl ate stored at 2 6 °C for a fu rther 24 h to allow female gametes to develop. Female
gamete formation was assessed by fluorescence m icroscopy using x6 objective to identify anti-Pfs25-
gentian violet negative and positive controls.
3.1 3 Act iv it y a gains t Cry pt os pori diu m h omi nis (CALIBR)
Thi s i s bas ed on methods previ ousl y reported (10).

Chain of PfKRS1 (Q8IDJ8 entry or part of it): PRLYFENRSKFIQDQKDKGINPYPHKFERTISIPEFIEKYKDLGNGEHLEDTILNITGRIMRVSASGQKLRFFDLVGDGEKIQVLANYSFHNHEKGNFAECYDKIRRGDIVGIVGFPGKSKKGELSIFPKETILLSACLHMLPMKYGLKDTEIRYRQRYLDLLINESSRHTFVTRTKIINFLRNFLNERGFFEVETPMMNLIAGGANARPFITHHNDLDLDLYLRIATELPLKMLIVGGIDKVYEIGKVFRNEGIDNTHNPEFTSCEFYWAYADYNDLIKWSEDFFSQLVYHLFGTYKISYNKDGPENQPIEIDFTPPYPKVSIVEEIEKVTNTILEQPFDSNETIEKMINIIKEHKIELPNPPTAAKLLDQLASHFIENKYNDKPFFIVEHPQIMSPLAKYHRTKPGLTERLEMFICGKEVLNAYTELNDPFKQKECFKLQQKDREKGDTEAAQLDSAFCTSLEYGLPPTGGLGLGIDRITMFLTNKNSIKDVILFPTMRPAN

In the case of `O=C(NCC1(O)CCC(F)(F)CC1)c1cc(=O)c2cc(F)ccc2o1` [Compound 5], the “Ki, linear uncompetitive inhibition vs. L-lysine” value (PfKRS1; EnzChek, saturating ATP) is reported as 212 nM, the Ki (PfKRS1; EnzChek, saturating L-lysine, read-out: Ki, linear competitive inhibition vs. ATP) is reported as 32 nM and the IC50 (PfKRS1; saturating concentrations of both substrates) is reported as 210 nM. It also gave an EC50 (C. hominis (TU502)) of 6000 nM.

Reference: paper PMC6452685, “Lysyl-tRNA synthetase as a drug target in malaria and cryptosporidiosis” (Proceedings of the National Academy of Sciences of the …, 2019)
